Assay results as given in ChEMBL document CHEMBL2029286, “Trisubstituted imidazoles as Mycobacterium tuberculosis glutamine synthetase inhibitors” (J Med Chem, 2012).
In brackets after ≈: the same amount, converted by molar mass.

Legend:
[1] = Inhibition of Mycobacterium tuberculosis H37Rv glutamine synthetase expressed in Escherichia coli GJ4745 after 1 hr
[2] = system: Mycobacterium tuberculosis; assay: Antitubercular activity against Mycobacterium tuberculosis H37Rv ATCC 27294 after 5 days by resazurin microtitre assay; type: functional; conditions: H37Rv ATCC 27294, 120 h
A549 = assay: Cytotoxicity against human A549 cells after 72 hrs by resazurin reduction assay; type: cell-based; conditions: A549, 72 h
[3] = Selectivity ratio of IC50 for human A549 cells to MIC for Mycobacterium tuberculosis H37Rv ATCC 27294; type: functional

| SMILES | IC50 [1] | MIC [2] | also measured |
| --- | --- | --- | --- |
| COc1ccc2cc(-c3nc(-c4ccc[nH]4)[nH]c3-c3ccncc3)ccc2c1 | > 25 µM |  |  |
| COc1ccc2cc(-c3nc(C(C)(C)C)[nH]c3-c3ccnc(N)c3)ccc2c1 |  | 2 µg/mL (≈ 5.37 µM) | IC50 (A549): 24.7 µM; Ratio IC50 [3]: 5 |
| COc1ccc2cc(-c3nc(C(C)(C)C)[nH]c3-c3ccccc3)ccc2c1 | > 25 µM |  |  |
| COc1ccc2cc(-c3nc(C(C)(C)C)[nH]c3-c3ccnc(N(C)C)c3)ccc2c1 | > 25 µM |  |  |
| COc1ccc2cc(-c3nc(-c4cccc(O)c4)[nH]c3-c3ccncc3)ccc2c1 | > 25 µM |  |  |
| CNc1cc(-c2[nH]c(C(C)(C)C)nc2-c2ccc3cc(OC)ccc3c2)ccn1 | 5.2 µM | 8 µg/mL (≈ 20.7 µM) |  |
| COc1ccc2cc(-c3nc(CO)[nH]c3-c3ccncc3)ccc2c1 | > 25 µM |  |  |
| COc1ccc2cc(-c3nc(C(C)(C)C)[nH]c3-c3ccncc3)ccc2c1 | 3.1 µM | > 32 µg/mL |  |
| CCc1nc(-c2ccc3cc(OC)ccc3c2)c(-c2ccncc2)[nH]1 | 2.2 µM | > 32 µg/mL |  |
| COc1ccc2cc(-c3nc(-c4ccccc4)[nH]c3-c3ccncc3)ccc2c1 | > 25 µM |  |  |
| COc1ccc2cc(-c3nc(C(C)(C)C)[nH]c3-c3cncnc3)ccc2c1 | > 25 µM |  |  |
| COc1ccc2cc(-c3nc[nH]c3-c3ccncc3)ccc2c1 | > 25 µM |  |  |
| COc1ccc2cc(-c3nc(C(C)(C)c4ccccc4)[nH]c3-c3ccncc3)ccc2c1 | > 25 µM |  |  |
| COc1ccc2cc(-c3nc(C)[nH]c3-c3ccncc3)ccc2c1 | > 25 µM |  |  |
| COc1ccc2cc(-c3nc(C(C)(C)C)[nH]c3-c3ccnc(F)c3)ccc2c1 | 1.2 µM | 64 µg/mL (≈ 170 µM) |  |
| CC(C)(C)c1nc(-c2cnc3ccccc3c2)c(-c2ccncc2)[nH]1 |  | > 32 µg/mL |  |
| COc1ccc2cc(-c3nc(COCc4ccccc4)[nH]c3-c3ccncc3)ccc2c1 | > 25 µM |  |  |
| COc1ccc2cc(-c3nc(C(C)(C)C)[nH]c3-c3ncccn3)ccc2c1 | > 25 µM |  |  |
